Experimental data: patent US6124328A, “Methods and compositions for stimulating neurite growth” (Vertex Pharmaceuticals Incorporated, priority 1997, dated 2000)

Target: FKBP12 (Homo sapiens, UniProt P62942)
Assay: FKBP12 Binding Assay: inhibition of FKBP rotomase activity (cis-N-succinyl-Ala-Ala-Pro-Phe-p-nitroanilide / chymotrypsin), apparent Ki
Type: biochemical
Details: Table 1a, formula Ia, compound 0.1 nM-10 μM
From the text: Preferably, the assay measures inhibition of FKBP12 rotomase activity. Such an assay has also been described by M. W. Harding et al., supra and by J. J. Siekierka et al., supra. In this assay the isomerization of an artificial substrate--N-succinyl-Ala-Ala-Pro-Phe-p-nitroanilide--is followed spectrophotometrically. The assay includes the cis form of the substrate, FKBP12, the inhibitor and chymotrypsin. Chymotrypsin is able to cleave p-nitroanilide from the trans form of the substrate, but not the cis form. Release of p-nitroanilide is measured.
In this assay various quantities of FKBP12 binding compound (0.1 nM-10 μM) were added to cis-N-succinyl-Ala-Ala-Pro-Phe-p-nitroanilide in the presence of FKBP12 and chymotrypsin. FKBP12 converts the cis form of the substrate to the trans form. This allows chymotrypsin to cleave p-nitroanilide from the substrate. Release of p-nitroanilide was measured spectrophotometrically.

Chain of FKBP12 (P62942 whole entry): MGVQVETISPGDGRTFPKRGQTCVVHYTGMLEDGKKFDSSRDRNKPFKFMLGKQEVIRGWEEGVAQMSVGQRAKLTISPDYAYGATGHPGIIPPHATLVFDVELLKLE

Ki | Structure (SMILES)
0.09 µM | COc1cc(C(=O)C(=O)N2CCCC[C@H]2C(=O)OCCCC(C)C2CCCCC2)cc(OC)c1OC (some centres unmarked)
26 µM | O=C(Cc1ccccc1[N+](=O)[O-])C(=O)N1CCCC[C@H]1C(=O)OCc1ccccc1 [Ia B=Benzyl, D=2-Nitrobenzyl, n=2]

Same assay, conditions: Table 1c, formula Ic, compound 0.1 nM-10 μM

Ki | Structure (SMILES)
> 1200 µM | CCOC(=O)CN(Cc1ccccc1)C(=O)C(=O)OC

Same assay, conditions: Table 2, formula II', compound 0.1 nM-10 μM

Structure (SMILES) | Ki
COc1ccc(C(=O)C(=O)N2CCCC[C@H]2C(=O)OC(CCCc2ccccc2)c2cccc(OCc3ccncc3)c2)cc1OC (some centres unmarked) [compound 93] | 0.0075 µM
C=CCOCC#CC(CCCc1ccccc1)OC(=O)[C@@H]1CCCCN1C(=O)C(=O)c1cc(OC)c(OC)c(OC)c1 (some centres unmarked) [compound 46] | 0.005 µM
CC(C)(C)C(=O)C(=O)N1CCC[C@H]1C(=O)OC(CCCc1ccccc1)CCCc1cccnc1 (some centres unmarked) [compound 105] | 0.34 µM
COc1cc(C(=O)C(=O)N2CCC[C@H]2C(=O)OC(C)c2cc(OCc3ccncc3)c(OCc3ccncc3)c(OCc3ccncc3)c2)cc(OC)c1OC (some centres unmarked) [compound 87] | 0.36 µM
COc1cc(C(=O)C(=O)N2CCCC[C@H]2C(=O)OC(CCCc2cccnc2)c2cccnc2)cc(OC)c1OC (some centres unmarked) [compound 61] | 0.01 µM
COc1cc(C(=O)C(=O)N2CCCC[C@H]2C(=O)OC(CCCc2ccccc2)c2ccccc2)cc(OC)c1OCc1ccccc1 (some centres unmarked) [compound 104] | 1.7 µM
COc1ccc(C(=O)C(=O)N2CCCC[C@H]2C(=O)OC(CCCc2ccccc2)c2ccc(C(=O)c3ccncc3)cc2)cc1OCc1ccccc1 (some centres unmarked) [compound 100] | > 5 µM
COc1cc(C(=O)C(=O)N2CCCC[C@H]2C(=O)OC(C)c2cc(OCc3ccncc3)c(C)c(OCc3ccncc3)c2)cc(OC)c1OC (some centres unmarked) [compound 73] | 0.036 µM
C=CCC(OC(=O)[C@@H]1CCCCN1C(=O)C(=O)c1cc(OC)c(OC)c(OC)c1)c1cc(OCc2ccncc2)c(OCc2ccncc2)c(OCc2ccncc2)c1 (some centres unmarked) [compound 118] | 0.012 µM
COc1cc(C(=O)C(=O)N2CCCC[C@H]2C(=O)OC(CCCc2ccccc2)c2cccc(C(=O)N3CCOCC3)c2)cc(OC)c1OC (some centres unmarked) [compound 56] | 0.0061 µM
C=CCOCCCCC(CCCc1ccccc1)OC(=O)[C@@H]1CCCCN1C(=O)C(=O)c1cc(OC)c(OC)c(OC)c1 (some centres unmarked) [compound 45] | 0.007 µM
CCC(OC(=O)[C@@H]1CCCCN1C(=O)C(=O)c1cc(OC)c(OC)c(OC)c1)c1cc(OCc2ccncc2)c(OCc2ccncc2)c(OCc2ccncc2)c1 (some centres unmarked) [compound 74] | 0.018 µM
COc1cc(C(=O)C(=O)N2CCCC[C@H]2C(=O)OC(CCCc2ccccc2)CCCc2ccc(C(=O)N3CCSCC3)cc2)cc(OC)c1OC (some centres unmarked) [compound 55] | 0.0024 µM
COc1cc(C(=O)C(=O)N2CCCC[C@H]2C(=O)OC(CCCc2ccccc2)c2ccc(OCc3ccncc3)c(OCc3ccncc3)c2)cc(OC)c1OC (some centres unmarked) [compound 65] | 0.0041 µM
COc1cc(C(=O)C(=O)N2CCC[C@H]2C(=O)OC(CCCc2cccnc2)CCCc2cccnc2)cc(OC)c1OC [compound 108] | 0.089 µM
COc1cc(C(=O)C(=O)N2CCCC[C@H]2C(=O)OC(CCCc2ccccc2)c2ccc(C(=O)c3ccncc3)cc2)cc(OC)c1OCc1ccccc1 (some centres unmarked) [compound 99] | 15 µM
C=CC(OC(=O)[C@@H]1CCCCN1C(=O)C(=O)c1cc(OC)c(OC)c(OC)c1)c1cc(OCc2ccncc2)c(OCc2ccncc2)c(OCc2ccncc2)c1 (some centres unmarked) [compound 79] | 0.0023 µM

Structure (SMILES) | Ki
COc1cc(C(=O)C(=O)N2CCCC[C@H]2C(=O)OC(C)c2cc(OCc3ccsc3)c(OCc3ccsc3)c(OCc3ccsc3)c2)cc(OC)c1OC (some centres unmarked) [compound 83] | > 1 µM
COc1cc(C(=O)C(=O)N2CCCC[C@H]2C(=O)OC(CCCc2ccccc2)CCCc2ccc(C(=O)N3CCN(Cc4ccccc4)CC3)cc2)cc(OC)c1OC (some centres unmarked) [compound 58] | 0.03 µM
COc1cc(C(=O)C(=O)N2CCCC[C@H]2C(=O)OC(C)c2ccc(OCc3ccncc3)c(OCc3ccncc3)c2)cc(OC)c1OC (some centres unmarked) [compound 66] | 0.035 µM
C=CCOCCC(CCCc1ccccc1)OC(=O)[C@@H]1CCCCN1C(=O)C(=O)c1cc(OC)c(OC)c(OC)c1 (some centres unmarked) [compound 50] | 0.011 µM
COc1cc(C(=O)C(=O)N2CCC[C@H]2C(=O)OC(C)c2cc(OCc3ccncc3)c(OCc3ccncc3)c(OCc3ccncc3)c2)cc(OC)c1OC (some centres unmarked) [compound 86] | 0.28 µM
COc1cc(C(=O)C(=O)N2CCCC[C@H]2C(=O)OC(C)c2cc(OCc3ccsc3)c(OCc3ccsc3)c(OCc3ccsc3)c2)cc(OC)c1OC (some centres unmarked) [compound 82] | > 5 µM
COc1cc(C(=O)C(=O)N2CCCC[C@H]2C(=O)OC(CCCc2ccccc2)c2cccc(C(=O)c3cccnc3)c2)cc(OC)c1OC (some centres unmarked) [compound 92] | 0.009 µM
COc1cc(C(=O)C(=O)N2CCCC[C@H]2C(=O)OC(CCCc2ccccc2)CCCn2cnc3ccccc32)cc(OC)c1OC (some centres unmarked) [compound 15] | 0.005 µM
CC(C)C(=O)C(=O)N1CCCC[C@H]1C(=O)OC(CCCc1cccnc1)CCCc1cccnc1 [compound 109] | 1.5 µM
COc1cc(C(=O)C(=O)N2CCCC[C@H]2C(=O)OC(c2ccccc2)c2cccc(Oc3ccccc3)c2)cc(OC)c1OC (some centres unmarked) [compound 5] | 4 µM
C=CCC(OC(=O)[C@@H]1CCCCN1C(=O)C(=O)c1cc(OC)c(OC)c(OC)c1)c1ccc(OCc2ccncc2)c(OCc2ccncc2)c1 (some centres unmarked) [compound 62] | 0.062 µM
COc1cc(C(=O)C(=O)N2CCCC[C@H]2C(=O)OC(C)c2cc(OCc3ccncc3)cc(OCc3ccncc3)c2)cc(OC)c1OC (some centres unmarked) [compound 71] | 0.014 µM
COc1cc(C(=O)C(=O)N2CCCC[C@H]2C(=O)OC(CCCc2ccccc2)CCCn2cnc3cncnc32)cc(OC)c1OC (some centres unmarked) [compound 25] | 0.0022 µM
COc1cc(C(=O)C(=O)N2CCCC[C@H]2C(=O)OC(CCCc2ccccc2)CCCc2cccc(C(=O)NCc3ccccc3)c2)cc(OC)c1OC (some centres unmarked) [compound 59] | 0.04 µM
COc1cc(C(=O)C(=O)N2CCCC[C@H]2C(=O)OC(C)c2cc(OCc3ccccc3)c(OCc3ccccc3)c(OCc3ccccc3)c2)cc(OC)c1OC (some centres unmarked) [compound 90] | 2.6 µM
C=CCOC/C=C/C(CCCc1ccccc1)OC(=O)[C@@H]1CCCCN1C(=O)C(=O)c1cc(OC)c(OC)c(OC)c1 (some centres unmarked) [compound 51] | 0.0028 µM
COc1cc(C(=O)C(=O)N2CCCC[C@H]2C(=O)OC(CCCc2ccccc2)c2ccc(OCc3ccncc3)c(C(=O)N3CCOCC3)c2)cc(OC)c1OC (some centres unmarked) [compound 68] | 0.002 µM

Second part, the compound after the results:

Ki | Structure (SMILES)
0.007 µM | COc1cc(C(=O)C(=O)N2CCCC[C@H]2C(=O)OC(CCCc2ccccc2)CCCc2ccc[n+]([O-])c2)cc(OC)c1OC (some centres unmarked) [compound 22]
0.0014 µM | COc1cc(C(=O)C(=O)N2CCCC[C@H]2C(=O)OC(CCCc2ccccc2)c2cccc(OCc3ccncc3)c2)cc(OC)c1OC (some centres unmarked) [compound 64]
0.036 µM | COc1cc(C(=O)C(=O)N2CCCC[C@H]2C(=O)OC(C)c2cc(OCc3ccncc3)c(OCc3ccncc3)c(OCc3ccncc3)c2)cc(OC)c1OC (some centres unmarked) [compound 69]
24 µM | COc1ccc(C(=O)C(=O)N2CCCC[C@H]2C(=O)OC(CCCc2ccccc2)c2ccccc2)cc1OCc1ccccc1 (some centres unmarked) [compound 103]
0.006 µM | COc1cc(C(=O)C(=O)N2CCCC[C@H]2C(=O)OC(CCCc2ccccc2)CCCc2ccc(C(=O)N3CCOCC3)cc2)cc(OC)c1OC (some centres unmarked) [compound 44]
0.012 µM | COc1cc(C(=O)C(=O)N2CCCC[C@H]2C(=O)OC(C)c2cc(OCc3ccncc3)cc(OCc3ccncc3)c2)cc(OC)c1OC (some centres unmarked) [compound 72]
0.054 µM | COc1cc(C(=O)C(=O)N2CCCC[C@H]2C(=O)OC(C)c2ccc(OCc3ccncc3)c(OCc3ccncc3)c2OC(C)C)cc(OC)c1OC (some centres unmarked) [compound 84]
0.009 µM | COc1cc(C(=O)C(=O)N2CCCC[C@H]2C(=O)OC(CCCc2ccccc2)CCCn2ccc3cccnc32)cc(OC)c1OC (some centres unmarked) [compound 23]
0.0065 µM | COc1cc(C(=O)C(=O)N2CCCC[C@H]2C(=O)OC(CCCc2ccccc2)CCCc2ccccn2)cc(OC)c1OC (some centres unmarked) [compound 20]
0.0015 µM | COc1cc(C(=O)C(=O)N2CCCC[C@H]2C(=O)OC(CCCc2ccccc2)CCCc2cccc(C(=O)N3CCOCC3)c2)cc(OC)c1OC (some centres unmarked) [compound 52]
0.0035 µM | COc1ccc(CCC(CCCc2ccccc2)OC(=O)[C@@H]2CCCCN2C(=O)C(=O)c2cc(OC)c(OC)c(OC)c2)cc1 (some centres unmarked) [compound 13]
0.002 µM | COc1cc(C(=O)C(=O)N2CCCC[C@H]2C(=O)OC(CCCc2ccccc2)CCCc2ccc(C(=O)Nc3ccccn3)cc2)cc(OC)c1OC (some centres unmarked) [compound 60]
0.005 µM | COc1cc(C(=O)C(=O)N2CCCC[C@H]2C(=O)OC(CCCc2ccccc2)CCCc2ccc(C(=O)N(C)C)cc2)cc(OC)c1OC (some centres unmarked) [compound 43]
0.014 µM | C=CCC(OC(=O)[C@@H]1CCCCN1C(=O)C(=O)c1cc(OC)c(OC)c(OC)c1)c1cc(OCc2ccncc2)c(OCc2ccncc2)c(OCc2ccncc2)c1 (some centres unmarked) [compound 76]
0.007 µM | COc1cc(C(=O)C(=O)N2CCCC[C@H]2C(=O)OC(CCCc2ccccc2)CCCc2ccc(C(=O)N3CCCCC3)cc2)cc(OC)c1OC (some centres unmarked) [compound 47]
0.15 µM | C=CCOc1ccccc1C(CCCc1ccccc1)OC(=O)[C@@H]1CCCCN1C(=O)C(=O)c1cc(OC)c(OC)c(OC)c1 (some centres unmarked) [compound 34]
